In patent US4758555A, “Method for treating convulsions and epilepsy with organic copper compounds” (priority 1986, dated 1988):
Entries after “also recorded” stand apart in the source; their conditions may differ.

Assays:
Assay type in all cases: in vivo, male Carworth Farms #1 mice or Sprague-Dawley rats
[1] = Maximal Electroshock Seizure Test; details: for Lowest active dose, MES (Phase I): Table V
[2] = Subcutaneous Pentylenetetrazol (Metrazol) Seizure Threshold Test; details: for Lowest active dose, Metrazol (Phase I): Table V
[3] = Anticonvulsant activity, both or unspecified seizure models; details: for Anticonvulsant activity (in words): running text; for Time of peak activity (Phase II): Table X, IP, challenge time
[4] = Table X, IP, challenge time 30 min
[5] = Table X, IP, challenge time 4 hrs
[6] = Table X, SC, challenge time 30 min
[7] = Table X, SC, challenge time 4 hrs
[8] = Table X, IP, at time of peak activity

Molecule: Cu(II)oxazepam
- Lowest effective dose, MES (Phase I) [1, 4]: 10 milligrams per kilogram of bod
- Lowest effective dose, MES (Phase I) [1, 5]: I
- Lowest effective dose, Metrazol (Phase I) [2, 4]: 1 milligrams per kilogram of bod
- Lowest effective dose, Metrazol (Phase I) [2, 5]: 10 milligrams per kilogram of bod
- Onset and duration of anticonvulsant action (in words) [3]: more prolonged in its action against Metrazol induced seizures
- Anticonvulsant activity (in words) [3]: protected against both types of seizure

Molecule: Cc1ncc(CO)c(C=NC(C(=O)[O-])C(C)O)c1[O-].O.O.[Cu+2] [Cu(II)Pyridoxylidene-L-threoninate(H2 O)2]
- Lowest active dose, MES (Phase I) ([1]; IP, challenge time 30 min): I
- Lowest active dose, MES (Phase I) ([1]; IP, challenge time 4 hrs): I
- Lowest active dose, Metrazol (Phase I) ([2]; IP, challenge time 30 min): 30 mg/kg of body weight
- Lowest active dose, Metrazol (Phase I) ([2]; IP, challenge time 4 hrs): 30 mg/kg of body weight
- Anticonvulsant activity (in words) [3]: more effective but only protected against the Metrazol-induced seizure

Molecule: Cu(II)2 (valproate)4
- Lowest effective dose, MES (Phase I) [1, 4]: I
- Lowest effective dose, MES (Phase I) [1, 5]: I
- Lowest effective dose, MES (Phase I) [1, 6]: I
- Lowest effective dose, MES (Phase I) [1, 7]: I
- Protection against Maximal Electroshock-induced seizures (in words) ([1]; running text): ineffective against Maximal Electroshock seizures
- Lowest effective dose, Metrazol (Phase I) [2, 4]: 100 milligrams per kilogram of bod
- Lowest effective dose, Metrazol (Phase I) [2, 5]: I
- Lowest effective dose, Metrazol (Phase I) [2, 6]: I
- Lowest effective dose, Metrazol (Phase I) [2, 7]: 600 milligrams per kilogram of bod
- Protection against Metrazol-induced seizures (in words) ([2]; running text): effective in protecting against Metrazol-induced seizures; also recorded: some inhibitory activity against Metrazol-induced seizures
- Onset and duration of anticonvulsant action (in words) [3]: rapid onset and short duration of activity following intraperitoneal administration; also recorded: prolonged onset of activity at a higher dose following subcutaneous administration

Molecule: O=C1CN=C(c2ccccc2Cl)c2cc([N+](=O)[O-])ccc2N1.O=C1CN=C(c2ccccc2Cl)c2cc([N+](=O)[O-])ccc2N1.[Cl-].[Cl-].[Cu+2] [Cu(II)(Clonazepam)2 (Cl)2]
- ED50 for inhibition of seizures, MES (Phase II) [1, 8]: 25 mg/kg
- Lowest effective dose, MES (Phase I) [1, 4]: 10 milligrams per kilogram of bod
- Lowest effective dose, MES (Phase I) [1, 5]: I
- Lowest effective dose, MES (Phase I) [1, 6]: 1 milligrams per kilogram of bod
- Lowest effective dose, MES (Phase I) [1, 7]: 30 milligrams per kilogram of bod
- ED50 for inhibition of seizures, Metrazol (Phase II) [2, 8]: 0.05 mg/kg
- Lowest effective dose, Metrazol (Phase I) [2, 4]: 1 milligrams per kilogram of bod
- Lowest effective dose, Metrazol (Phase I) [2, 5]: 1 milligrams per kilogram of bod
- Lowest effective dose, Metrazol (Phase I) [2, 6]: 1 milligrams per kilogram of bod
- Lowest effective dose, Metrazol (Phase I) [2, 7]: 1 milligrams per kilogram of bod
- Time of peak activity (Phase II) [3]: 30 min
- Potency or effectiveness relative to a comparator (in words) ([3]; in vivo): four times as effective as the parent drug
- Anticonvulsant activity (in words) [3]: very potent anticonvulsant

Molecule: CN1C(=O)CN=C(c2ccccc2)c2cc(Cl)ccc21 [Diazepam, reference compound]
- ED50 ([1]; Mus musculus, ip, read-out: ED50 for inhibition of seizures, MES (Phase II)): 19 mg/kg
- ED50 ([2]; Mus musculus, ip, read-out: ED50 for inhibition of seizures, Metrazol (Phase II)): 0.17 mg/kg
- Time of peak activity (Phase II) [3]: 60 min

Molecule: Cc1ncc(CO)c(C=N[C@@H](CO)C(=O)[O-])c1[O-].O.[Cu+2] [Cu(II)Pyridoxylidene-L-serinate(H2 O)]
- Lowest active dose, MES (Phase I) ([1]; IP, challenge time 30 min): I
- Lowest active dose, MES (Phase I) ([1]; IP, challenge time 4 hrs): I
- Lowest active dose, Metrazol (Phase I) ([2]; IP, challenge time 30 min): 100 mg/kg of body weight
- Lowest active dose, Metrazol (Phase I) ([2]; IP, challenge time 4 hrs): 100 mg/kg of body weight
- Anticonvulsant activity (in words) [3]: more effective but only protected against the Metrazol-induced seizure

Molecule: O=C([O-])c1ccccc1O.O=C([O-])c1ccccc1O.[Cu+2].c1ccncc1.c1ccncc1 [Cu(II)(salicylate)2 (pyridine)2]
- Anticonvulsant activity, Maximal Electroshock (Phase I) ([1]; Table II, IP): I
- Onset and duration of anticonvulsant action (in words) [3]: activity representative of a compound with rapid onset

Molecule: Cc1ncc(CO)c(C=N[C@@H](Cc2c[nH]c3ccccc23)C(=O)[O-])c1[O-].O.O.[Cu+2] [Cu(II)Pyridoxylidene-L-tryptophanate(H2 O)2]
- Lowest active dose, MES (Phase I) ([1]; IP, challenge time 30 min): I
- Lowest active dose, MES (Phase I) ([1]; IP, challenge time 4 hrs): I
- Lowest active dose, Metrazol (Phase I) ([2]; IP, challenge time 30 min): 30 mg/kg of body weight
- Lowest active dose, Metrazol (Phase I) ([2]; IP, challenge time 4 hrs): 30 mg/kg of body weight
- Anticonvulsant activity (in words) [3]: more effective but only protected against the Metrazol-induced seizure

Molecule: CC(=O)Oc1c(I)cc(I)cc1C(=O)[O-].CC(=O)Oc1c(I)cc(I)cc1C(=O)[O-].O.O.O.[Cu+2] [Cu(II)2 (3,5-diiodoacetylsalicylate)4 (H2 O)6]
- Anticonvulsant activity, Maximal Electroshock (Phase I) ([1]; Table I, IP): I
- Anticonvulsant activity (in words) [3]: effective in protecting against both models of seizure

Molecule: CC(=O)Oc1ccccc1C(=O)[O-].CC(=O)Oc1ccccc1C(=O)[O-].CC(=O)Oc1ccccc1C(=O)[O-].CC(=O)Oc1ccccc1C(=O)[O-].[Cu+2].[Cu+2] [Cu(II)2 (acetylsalicylate)4]
- Anticonvulsant activity, Maximal Electroshock (Phase I) ([1]; Table I, SC): I
- Anticonvulsant activity (in words) [3]: activity at 30 minutes, 6 hours and 8 hours following subcutaneous injection of the entire range of doses studied

Molecule: CC(C)(C)c1ccc(C(=O)[O-])c(O)c1.CC(C)(C)c1ccc(C(=O)[O-])c(O)c1.CC(C)(C)c1ccc(C(=O)[O-])c(O)c1.CC(C)(C)c1ccc(C(=O)[O-])c(O)c1.O.[Cu+2].[Cu+2] [Cu(II)2 (4-tertiarybutylsalicylate)2.1/2H2 O]
- Anticonvulsant activity, Maximal Electroshock (Phase I) ([1]; Table II, SC): I
- Anticonvulsant activity (in words) [3]: effective at the higher doses studied and for prolonged periods of up to 4 hours

Molecule: O.O.O=C([O-])c1cc(Cl)cc(Cl)c1O.O=C([O-])c1cc(Cl)cc(Cl)c1O.[Cu+2] [Cu(II)(3,5-dichlorosalicylate)2 (H2 O)2]
- Anticonvulsant activity, Maximal Electroshock (Phase I) ([1]; Table II, SC): I
- Anticonvulsant activity (in words) [3]: effective in preventing both the Maximal Electroshock and Metrazol-inducedseizures in Phase I studies

Molecule: CC(=O)Oc1c(Br)cc(Br)cc1C(=O)[O-].CC(=O)Oc1c(Br)cc(Br)cc1C(=O)[O-].[Cu+2] [Cu(II)2 (3,5-dibromoacetylsalicylate)4]
- Anticonvulsant activity, Metrazol (Phase I) ([2]; Table I, SC): I
- Anticonvulsant activity (in words) [3]: effective in protecting against both models of seizure
